In patent US20210052701A1, “Methods of Treating Vascular Leakage Using CXCL12 Peptides” (The Medical College of Wisconsin, Inc., priority 2018, published 2021):
Entries after “also recorded” stand apart in the source; their conditions may differ. Where two headings read alike, the source gives them in different places. One block for each molecule: values may come before it.

Columns and labels:
ACKR3 = target: T1, ACKR3 (Homo sapiens, UniProt P25106); test: Presto-Tango β-arrestin 2 recruitment assay for ACKR3; type: cell-based
T1 construct: host or cells: HTLA cells (HEK293 line stably expressing a tTA-dependent luciferase reporter and a β-arrestin2-TEV fusion gene)
Method: (§1) FIGS. 6A-6F show Presto-Tango β-arrestin 2 recruitment assays for CXCR4 (A-C) and ACKR3 (D-F). RLU %: % of the luminescence signal for 1 μM CXCL12α. N=9 for CXCL12a and n=3 for all other proteins.
(§2) Presto-Tango β-arrestin 2 recruitment assay—The PRESTO-Tango (parallel receptorome expression and screening via transcriptional out-put, with transcriptional activation following arrestin translocation) assay was performed as recently described. The Tango plasmids were a gift from Dr. Bryan Roth (all from Addgene). HTLA cells (2.5×10^5/well) were seeded in a 6-well plate and transfected with 1.5 μg of the Tango plasmids using Lipofectamine 3000 (ThermoScientific). The following day, transfected HTLA cells (1×10^5 cells/well) were plated onto Poly-L-Lysine pre-coated 96-well micro-plates and allowed to attach to the plate surface for at least 4 hours prior to treatment. Proteins used for treatment were prepared in twice the final concentration in culture media, added at a 1:1 vol/vol ratio and incubated overnight at 37° C., 5% CO2 in a humidified environment. The following morning, media was removed from cell culture plates and replaced with a 100 μL 1:5 mixture of Bright-Glo (Promega) and 1×HBSS, 20 mM HEPES solution. Plates were then incubated at room temperature before measuring luminescence on a Biotek Synergy II plate reader.

CXCR4 = target: T2, CXCR4 (Homo sapiens, UniProt P61073); test: Presto-Tango β-arrestin 2 recruitment assay for CXCR4; type: cell-based
T2 construct: host or cells: HTLA cells (HEK293 line stably expressing a tTA-dependent luciferase reporter and a β-arrestin2-TEV fusion gene)
Method: as §1, §2

hPPAEC [1] = test: Effects of CXCR4 agonists / CXCL12 variants on thrombin-induced impairment of hPPAEC monolayer permeability; type: cell-based, human
Method: FIGS. 3A-3D show effects of CXCL12 and ubiquitin on thrombin-induced impairment of hPPAEC monolayer permeability. hPPAEC were grown to a confluent monolayer on collagen-coated permeable membranes. (A) hPPAEC were pre-treated with vehicle, 100 nM of CXCL12 or ubiquitin for 10 minutes, as indicated, and then exposed to thrombin (50 nM), followed by the addition of FITC-dextran. Vehicle: no thrombin. Endothelial permeability was assessed by measuring the amount of FITC-dextran that permeated through the cell monolayer. No cells: 100% permeability (open circles). RFU: Relative fluorescence units. N=3 in quadruplicate. *: p<0.05 vs. vehicle/thrombin. (B-D) hPPAEC were exposed to 35 nM of thrombin or vehicle. After 10 min, thrombin-exposed cells were treated with vehicle, CXCL12 (50 nM) and/or AMD3100 (10 μM) (B), with vehicle, ubiquitin (50 nM) and/or AMD3100 (10 μM) (C) or with various concentrations of ubiquitin (D) followed by the addition of FITC-dextran. The experimental conditions are indicated. Endothelial permeability was assessed by measuring the amount of FITC-dextran that permeated through the cell monolayer. RFU: Relative fluorescence units. N=3 in quadruplicate. *: p<0.05 vs. thrombin/vehicle (2-way ANOVA/Bonferroni's multiple comparison post hoc test).
(§3) FIGS. 7A-7D show dose-dependent effects of CXCL12α/β, CXCL12 (3-68) and CXCL12 mutants K27A/R41A/R47A, R47E and S-S4V on thrombin-induced impairment of hPPAEC monolayer permeability. hPPAEC cells were grown to a confluent monolayer on collagen-coated permeable membranes. hPPAEC were then exposed to 35 nM of thrombin. After 10 min, thrombin-exposed cells were treated with vehicle or 50 nM (A), 5 nM (B), 0.5 nM (C) or 0.05 nM (D) of the various proteins, as indicated. In (D) 5 nM CXCL12a was used as a positive control. N=3 in quadruplicate.
as §3, with “8A-8D” for “7A-7D”, “CXCL12α, CXCL121” for “CXCL12α/β, CXCL12 (3-68)”, “CXCL122” for “CXCL12 mutants K27A/R41A/R47A, R47E and S-S4V”, “CXCL12α” for “CXCL12a”
FIGS. 9A-9B show inhibition of thrombin-induced hyper-permeability of hPPAEC by CXCL12/CXCL12 variants. % inhibition: % inhibition of thrombin-induced hyperpermeability. Data from FIGS. 7 and 8 at t=255 min. N=3 in quadruplicate. *: p<0.05 vs. CXCL12a (2-way ANOVA/Bonferroni's multiple comparison post hoc test).
(§4) In vitro vascular permeability assays—Permeability assays were obtained from Millipore (ECM642) and performed as per manufacturer's instructions. In brief, 96-well collagen-coated permeability assay plates were pre-hydrated for 15 min, 5×10^5 cells were seeded on each well and grown to a confluent monolayer for 48 hours. Fluorescein isothiocyanate (FITC)-dextran (20 μg/mL) was then added on top of the monolayer and the amount of FITC-dextran that permeated through the monolayer was quantified by measuring fluorescence in a Synergy 2 Multi-mode Microplate Reader (BioTek, Winooski, Vt.) at various time points over a 255 min time period.

HULEC-5a = test: Thrombin dose-response in HULEC-5a monolayer permeability assay; type: cell-based, human; settings: read-out: EC50 for thrombin-induced impairment of HULEC-5a barrier function
Method: FIGS. 4A-4D show effects of CXCL12 and ubiquitin on thrombin-induced impairment of HULEC-5a monolayer permeability. (A) HULEC-5a were grown to a confluent monolayer on collagen-coated permeable membranes and then exposed to different concentration of thrombin for 10 min, followed by the addition of FITC-dextran. Endothelial permeability was assessed by measuring the amount of FITC-dextran that permeated through the cell monolayer. No cells: 100% permeability. RFU: Relative fluorescence units. N=3 in quadruplicate. (B) Dose-response curves for thrombin-induced permeability, data from A. 100% permeability=permeability in the absence of HULEC-5a. Open squares: Permeability at t=55 min. Light grey squares: Permeability at t=135 min. Dark grey squares: Permeability at t=255 min. (C/D) HULEC-5a were grown to a confluent monolayer on collagen-coated permeable membranes and then exposed to 50 nM of thrombin or vehicle. After 10 min, thrombin-exposed cells were treated with vehicle, CXCL12 (50 nM) (C) or ubiquitin (50 nM) (D), followed by the addition of FITC-dextran. The experimental conditions are indicated. Endothelial permeability was assessed by measuring the amount of FITC-dextran that permeated through the cell monolayer. RFU: Relative fluorescence units. N=3 in quadruplicate. *: p<0.05 vs. thrombin/vehicle (2-way ANOVA/Bonferroni's multiple comparison post hoc test).
as §4

hPPAEC [2] = test: Thrombin dose-response in hPPAEC monolayer permeability assay; type: cell-based, human; settings: for EC50: read-out: EC50 for thrombin-induced impairment of hPPAEC barrier function; for maximal impairment of endothelial barrier function: 100% = permeability in the absence of hPPAEC
Method: FIGS. 2A-2B show impairment of hPPAEC monolayer permeability by thrombin. (A) hPPAEC were grown to a confluent monolayer on collagen-coated permeable membranes and then exposed to different concentration of thrombin for 10 min, followed by the addition of FITC-dextran. Endothelial permeability was assessed by measuring the amount of FITC-dextran that permeated through the cell monolayer. No cells: 100% permeability. RFU: Relative fluorescence units. N=3 in quadruplicate. (B) Dose-response curves for thrombin-induced permeability, data from A. 100% permeability=permeability in the absence of hPPAEC. Open squares: Permeability at t=55 min. Light grey squares: Permeability at t=135 min. Dark grey squares: Permeability at t=255 min. Dose-response curves were generated using nonlinear regression analyses.
as §4
Data analysis—Data are expressed as mean±SEM from n independent experiments that were performed on different days. Data were analyzed with unpaired Student's t test, one- or two-way analyses of variance with Bonferroni's multiple comparison post hoc test, as appropriate. Dose-response curves were generated using nonlinear regression analyses. All analyses were performed with the GraphPad-Prism 7 software. A two-tailed P<0.05 was considered significant.

[3] = test system: animal model of acute respiratory distress syndrome (ARDS); test: Animal model of ARDS: lung ischemia reperfusion injury plus hemorrhage (P:F ratio, lung injury score); type: in vivo, Sprague-Dawley rats; settings: 0.14 μmol/kg i.v. within 10 min after reperfusion; until t=300 min
Method: Animals underwent 70 min of […] lung ischemia for 70 min plus hemorrhage to a MAP of 40 mmHg for the last 30 min of ischemia, followed by fluid resuscitation to a MAP of 60 mmHg until t=300 min. Arrow: drug injection. Dashed lines indicate the P:F ratio (mmHg) threshold values for the diagnosis of mild, moderate and severe ARDS. Vehicle: n=5. CXCL12: n=3. CXCL12: n=4. CXCL12-LM: n=3, CXCL12-LD: n=4. CXCL12 K27A/R41A/R47A: n=3. LI+HEM: lung ischemia reperfusion injury plus hemorrhage. Data are mean±SEM. *: p<0.05 vs. vehicle (2-way ANOVA/Dunnett's multiple comparisons test).
FIGS. 12A-12C show lung histology after treatment with CXCL12 and engineered CXCR4 agonists A. Lung specimens were placed in formalin fixative solution and were then embedded in paraffin wax, sliced into 5 μm sections and stained with H&E. Representative images from H&E stained lung sections from animals after vehicle (left) and CXCL12 ([…], right treatment. B/C. Lung injury scores (B. uninjured (left) lung; C. injured (right) lung). Data are median±interquartile ranges. Data were analyzed with the Kruskal Wallis test with Dunn's multiple comparisons test. The level of statistical significance (p) vs. ctrl. (vehicle treatment) indicated.
We tested therapeutic efficacy of wild-type CXCL12, CXXL12-locked dimer (LD), CXCL12-locked monomer (LM) and the triple mutant CXCL12 K27A/R41A/R47A in an animal model of acute respiratory distress syndrome (ARDS) (FIG. 11). All drugs were injected in a dose of 0.14 μmol/kg. Male Sprague-Dawley rats were anesthetized, orotracheally intubated, instrumented with arterial/venous catheters, and mechanically ventilated (PEEP 2 mmHg, FiO2 1.0). After a right lateral thoracotomy, a suture was tied around the hilum of the right lung. Animals underwent 70 min of right lung ischemia plus hemorrhage to a mean arterial blood pressure (MAP) of 40 mmHg for the last 30 min of lung ischemia. At t=70 min, the suture was removed, animals were ventilated with FiO2 1.0, PEEP 5 mmHg and resuscitated with crystalloids to a MAP of 60 mmHg until t=300 min. Vehicle and drugs were injected i.v. within 10 min after reperfusion.
We further evaluated histomorphology of the lungs from animals treated with vehicle, wild-type CXCL12, CXCL12-LD and CXCXL12-LM utilizing a standardized lung injury score. Lung slides stained with hematoxylin and eosin were examined under a light microscope by 4 investigators blinded to the identity of the specimens. The lung injury score was assessed as previously described/. In brief each investigator rendered a score of 0 (no damage) to 4+(maximal damage) based on an injury grading scale composed of six criteria. The slides were assessed for the extent of alveolar congestion, hemorrhage and edema, as well as alveolar and vessel wall PMN infiltration and alveolar wall thickness. […] Lung injury scores of the uninjured and injured lungs from animals treated with vehicle, wild-type CXCL12, CXCL12-LD and CXCXL12-LM are shown in FIGS. […], respectively.

T2 sequence (P61073 whole entry, the tested form may be a part): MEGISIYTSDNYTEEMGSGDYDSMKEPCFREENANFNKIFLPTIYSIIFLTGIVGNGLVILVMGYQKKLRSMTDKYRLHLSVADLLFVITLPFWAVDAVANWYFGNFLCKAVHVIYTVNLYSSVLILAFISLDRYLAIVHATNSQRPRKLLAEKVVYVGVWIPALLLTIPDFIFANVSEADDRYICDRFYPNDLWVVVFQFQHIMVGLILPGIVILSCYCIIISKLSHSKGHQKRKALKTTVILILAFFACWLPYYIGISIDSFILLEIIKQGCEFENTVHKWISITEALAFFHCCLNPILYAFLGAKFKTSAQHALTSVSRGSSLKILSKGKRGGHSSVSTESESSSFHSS
T1 sequence (P25106 whole entry, the tested form may be a part): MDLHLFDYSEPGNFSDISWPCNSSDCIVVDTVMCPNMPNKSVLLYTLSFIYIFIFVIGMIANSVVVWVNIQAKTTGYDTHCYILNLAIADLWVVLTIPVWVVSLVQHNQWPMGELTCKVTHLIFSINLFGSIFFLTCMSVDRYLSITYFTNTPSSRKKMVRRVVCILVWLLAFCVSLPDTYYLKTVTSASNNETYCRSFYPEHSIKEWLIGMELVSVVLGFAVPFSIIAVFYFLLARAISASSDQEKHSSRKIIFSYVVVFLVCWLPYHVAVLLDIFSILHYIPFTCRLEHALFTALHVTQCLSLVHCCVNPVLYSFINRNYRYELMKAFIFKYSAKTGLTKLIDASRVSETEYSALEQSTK

Molecule: CXCL12 R47E: CXCL12 mutant which activates CXCR4 with reduced potency
ACKR3 activity (in words) (ACKR3): retains ACKR3 activity comparable to wild type proteins | potency (EC50) to recruit β-arrestin 2 to CXCR4, compared with CXCL12α (CXCR4): significantly lower than the potency of CXCL12α

B1: CXCL12 K27A/R41A/R47A: CXCL12 mutant with significantly reduced heparan sulfate proteoglycan binding properties (protein)
chain: KPVSLSYRCPCRFFESHVARANVKHLAILNTPNCALQIVAALKNNNAQVCIDPKLKWIQEYLEKALNK
modifications: ends and bridges not checked
EC50 (potency) for β-arrestin 2 recruitment to ACKR3 (ACKR3): retained high potency to activate ACKR3 | potency (EC50) to recruit β-arrestin 2 to CXCR4, compared with CXCL12α (CXCR4): significantly lower than the potency of CXCL12α; also recorded: lowest potency to activate CXCR4 | development of ARDS (P:F ratio) [3]: indistinguishable from vehicle treated animals | potency to attenuate thrombin-induced permeability of hPPAEC (in words) (hPPAEC [1]): same potency as wild type proteins and CXCL121

Continued, in another order:

efficacy for β-arrestin 2 recruitment to ACKR3 (ACKR3): significantly reduced | efficacy to recruit β-arrestin 2 to CXCR4 (CXCR4; top plateau, % of signal for 1 μM CXCL12α): lacked relevant CXCR4 activity
Molecule: CXCL12 (3-68): truncated CXCL12 (3-68), N-terminal truncated
effect on thrombin-mediated impairment of hPPAEC barrier function (hPPAEC [1]; thrombin 35 nM, after 10 min 0.05-50 nM protein): did not attenuate thrombin-induced impairment of hPPAEC barrier function

EC50 (HULEC-5a; after 55 min): 64 ± 7 nM | EC50 (HULEC-5a; after 135 min): 64 ± 6 nM | EC50 (HULEC-5a; after 255 min): 57 ± 5 nM | EC50 (hPPAEC [2]; after 55 min): 30 ± 2 nM | EC50 (hPPAEC [2]; after 135 min): 33 ± 2 nM | EC50 (hPPAEC [2]; after 255 min): 36 ± 2 nM
Molecule: thrombin
maximal impairment of endothelial barrier function (hPPAEC [2]; at 55 min): 49±3% | maximal impairment of endothelial barrier function (hPPAEC [2]; at 135 min): 59±4% | maximal impairment of endothelial barrier function (hPPAEC [2]; at 255 min): 72±4% | time to reach plateau for the permeability-inducing effects (hPPAEC [2]; thrombin 20 nM): 55 min | time to reach plateau for the permeability-inducing effects (hPPAEC [2]; thrombin 40 nM): 135 min | time to reach plateau for the permeability-inducing effects (hPPAEC [2]; thrombin 50 nM): 255 min | time to reach plateau for the permeability-inducing effects (hPPAEC [2]; thrombin 100 nM): 255 min
